Source: US8518980B2, “Treatment of Duchenne muscular dystrophy” (Summit Corporation PLC, priority 2006, dated 2013)

Tested on: Utrophin A promoter linked to a luciferase reporter gene (H2K/mdx/Utro A reporter cell line)
Experiment: Luciferase reporter assay (murine H2K cells)
Conditions: Mus musculus, H2K mdx

Compound	activity at 10 µM
Cc1cc2oc(C(=O)NCc3ccncc3)c(C)c2cc1C [Example 656, 3,5,6-trimethyl-N-(pyridin-4-ylmethyl)benzofuran-2-carboxamide]	301 to 400%
CCOCC(=O)Nc1ccc(-c2nc3ccc(C)cc3s2)cc1 [Example 657, 2-ethoxy-N-(4-(6-methylbenzo[d]thiazol-2-yl)phenyl)acetamide]	301 to 400%
O=C(Nc1nc2ccc(F)cc2s1)c1cccs1 [Example 658, N-(6-fluorobenzo[d]thiazol-2-yl)thiophene-2-carboxamide]	301 to 400%
Cc1nn(-c2nc3ccccc3[nH]2)c(N)c1-c1ccccc1 [Example 659, 1-(1H-benzo[d]imidazol-2-yl)-3-methyl-4-phenyl-1H-pyrazol-5-amine]	301 to 400%
CCOCCC(=O)Nc1ccc(-c2nc3ccc(C)cc3s2)cc1 [Example 660, 3-ethoxy-N-(4-(6-methylbenzo[d]thiazol-2-yl)phenyl)propanamide]	301 to 400%
O=C(Nc1ccc(-c2nc3ccccc3s2)cc1)C1CC1 [Example 661, N-(4-(benzo[d]thiazol-2-yl)phenyl)cyclopropanecarboxamide]	301 to 400%
CC(=O)Nc1ccc(-c2nc3cc(C)ccc3o2)cc1 [Example 662, N-(4-(5-methylbenzo[d]oxazol-2-yl)phenyl)acetamide]	301 to 400%
Cc1ccc(NC(=O)C(=O)c2c[nH]c3ccccc23)c(Br)c1 [Example 663, N-(2-bromo-4-methylphenyl)-2-(1H-indol-3-yl)-2-oxoacetamide]	301 to 400%
Cc1ccc2nc(-c3ccc(N)cc3)sc2c1 [Example 664, 4-(6-methylbenzo[d]thiazol-2-yl)aniline]	201 to 300%
O=C(NCCc1ccccc1)c1cc2ccccc2o1 [Example 665, N-phenethylbenzofuran-2-carboxamide]	201 to 300%
Cn1c(CNc2ccc(Cl)cc2)nc2ccccc21 [Example 666, 4-chloro-N-((1-methyl-1H-benzo[d]imidazol-2-yl)methyl)aniline]	201 to 300%
CCC(=O)Nc1ccc(-c2nc3ccccc3s2)cc1 [Example 667, N-(4-(benzo[d]thiazol-2-yl)phenyl)propionamide]	201 to 300%
CCC(=O)Nc1ccc2oc(-c3cccc(C)c3)nc2c1 [Example 668, N-(2-m-tolylbenzo[d]oxazol-5-yl)propionamide]	201 to 300%
Cn1c(NC(=N)c2ccccc2)nc2ccccc21 [Example 669, N-(1-methyl-1H-benzo[d]imidazol-2-yl)benzimidamide]	201 to 300%
O=C(Nc1nc2ccccc2s1)c1cc(Br)ccc1Cl [Example 671, N-(benzo[d]thiazol-2-yl)-5-bromo-2-chlorobenzamide]	201 to 300%
Cc1ccc2nc(-c3ccc(NC(=O)c4cccs4)cc3)oc2c1 [Example 672, N-(4-(6-methylbenzo[d]oxazol-2-yl)phenyl)thiophene-2-carboxamide]	201 to 300%
Nc1c(C(=O)Nc2ccccc2F)sc2nc3c(cc12)CCC3 [Example 673, 3-amino-N-(2-fluorophenyl)-6,7-dihydro-5H-cyclopenta[e]thieno[2,3-b]pyridine-2-carboxamide]	201 to 300%

Compound	activity at 10 µM
OCc1cn(-c2ccccc2)nc1-c1cc2ccccc2o1 [Example 674, (3-(benzofuran-2-yl)-1-phenyl-1H-pyrazol-4-yl)methanol]	201 to 300%
COc1ccc(-c2nc3cc(C)ccc3o2)cc1 [Example 675, 2-(4-methoxyphenyl)-5-methylbenzo[d]oxazole]	201 to 300%
CCOc1ccc(NCc2nc3ccccc3n2C)cc1 [Example 676, 4-ethoxy-N-((1-methyl-1H-benzo[d]imidazol-2-yl)methyl)aniline]	201 to 300%
Cc1ccc2oc(-c3ccc(Cl)c(NC(=O)c4ccco4)c3)nc2c1 [Example 677, N-(2-chloro-5-(5-methylbenzo[d]oxazol-2-yl)phenyl)furan-2-carboxamide]	201 to 300%
Cc1nc(Nc2nc3ccccc3o2)nc2c1CCC2 [Example 678, N-(4-methyl-6,7-dihydro-5H-cyclopenta[d]pyrimidin-2-yl)benzo[d]oxazol-2-amine]	201 to 300%
O=C(Nc1nc2ccccc2[nH]1)c1cccc(Cl)c1 [Example 679, N-(1H-benzo[d]imidazol-2-yl)-3-chlorobenzamide]	201 to 300%
O=C(Nc1ccc(-c2nc3ccccc3s2)cc1)C1CCCO1 (stereo not drawn) [Example 680, N-(4-(benzo[d]thiazol-2-yl)phenyl)tetrahydrofuran-2-carboxamide]	201 to 300%
CC(=O)c1c(C)nc(Nc2nc3ccccc3o2)nc1C [Example 681, 1-(2-(benzo[d]oxazol-2-ylamino)-4,6-dimethylpyrimidin-5-yl)ethanone]	201 to 300%
Cc1ccnc(Nc2nc3ccccc3o2)n1 [Example 682, N-(4-methylpyrimidin-2-yl)benzo[d]oxazol-2-amine]	201 to 300%
CN(C)S(=O)(=O)c1ccc2nc(NC(=O)c3cccs3)sc2c1 [Example 683, N-(6-(N,N-dimethylsulfamoyl)benzo[d]thiazol-2-yl)thiophene-2-carboxamide]	201 to 300%
Cc1ccc2oc(-c3cc(NC(=O)c4cncc(Br)c4)ccc3O)nc2c1 [Example 684, 5-bromo-N-(4-hydroxy-3-(5-methylbenzo[d]oxazol-2-yl)phenyl)nicotinamide]	201 to 300%
O=C(CSc1nc[nH]n1)Nc1ccc(-c2nc3ccccc3s2)cc1 [Example 685, 2-(1H-1,2,4-triazol-3-ylthio)-N-(4-(benzo[d]thiazol-2-yl)phenyl)acetamide]	201 to 300%
COc1ccc2oc(-c3ccc(C)c(N)c3)nc2c1 [Example 686, 5-(5-methoxybenzo[d]oxazol-2-yl)-2-methylaniline]	201 to 300%
CNS(=O)(=O)c1ccc2nc(NC(=O)c3cccs3)sc2c1 [Example 687, N-(6-(N-methylsulfamoyl)benzo[d]thiazol-2-yl)thiophene-2-carboxamide]	201 to 300%
Cc1ccc2sc(-c3ccc(NC(=O)c4cc(-n5cnnc5)ccc4Cl)cc3)nc2c1 [Example 688, 2-chloro-N-(4-(5-methylbenzo[d]thiazol-2-yl)phenyl)-5-(4H-1,2,4-triazol-4-yl)benzamide]	201 to 300%
O=C(Nc1ccccc1F)C(=O)c1c[nH]c2ccccc12 [Example 689, N-(2-fluorophenyl)-2-(1H-indol-3-yl)-2-oxoacetamide]	201 to 300%
